Assay results: patent US20020016358A1, “Cosmetic composition” (NOF CORPORATION, priority 2000, published 2002)

Experiments:
[1] = tested on: human melanoma cell (HM3KO); assay: Suppression of melanin formation in human melanoma cell (HM3KO); format: cell-based; settings: sample 10 μM in medium, cultivation 6 days, absorbance 410 nm of cell lysate, no addition = 100%
Description: (Confirmation of Whitening Effect-1: Suppression of Melanin Formation) Using the obtained compounds of formulae (II) to (V), the effect of suppressing melanin production of human melanoma cell (HM3KO) was examined in vitro. More specifically, HM3KO was cultured to about 5×10^5 by a conventional method, collected by centrifugation to obtain pellets, and inoculated the pellet to a culture dish of 10 cm diameter containing an Eagle's medium supplemented with 10% fetal bovine serum and cultured at 37° C. for 24 hours. Thereafter, each polymethoxyflavone of formulae (II) to (V) was added, or kojic acid or arbutin for comparison was added thereto so that the final addition concentration was 10 μM, followed by cultivation for 6 days. After the cultivation, cells were collected by centrifugation, and 1 ml of 2N sodium hydroxide aqueous solution was added thereto to obtain cell lysate. The absorbance in a wavelength of 410 nm of the cell lysate was measured with a spectrophotometer. Here, the absorbance of the cell lysate to which a sample is not added is defined as 100% of the melanin production ratio, and the melanin production ratios are shown as relative values, measuring the absorbance of each cell lysate.

UV-induced pigmentation = assay: Suppression of UV-induced pigmentation in brown guinea pigs; format: in vivo; settings: 40 μl twice a day, after UV 0.5 J/cm2; for Pigmentation degree ΔL, After 40 days: no addition −5.2; for Pigmentation degree ΔL, After 20 days: no addition −7.8
Description: (Confirmation of Whitening Effect-2: Suppression of UV-induced Pigmentation)
Using brown guinea pigs, the suppression of UV-induced pigmentation was examined in vivo. More specifically, the backs of the brown guinea pigs were shaved and covered with an ultraviolet shielding plate provided with 6 rectangular holes of 2×2 cm, followed by irradiation of UV (0.5 J/cm^2) to induce pigmentation. Thereafter, 40 μl of 70% (W/W) ethanol aqueous solution containing each of polymethoxyflavone (nobiletin) of formula (III) or polymethoxyflavone (tangeretin) of formula (IV) in a concentration shown in Table 2 were applied twice a day. Then, the degrees of pigmentation before and after the application were measured.
In Table 2, the pigmentation degree ΔL was obtained by measuring a L value before UV irradiation, which is defined as 0, with a spectrophotometric calorimeter, and obtaining the difference between the L values before and after UV irradiation. A lower value ΔL corresponds to a higher pigmentation degree.

[2] = sample concentration 0.4% in 70% ethanol
[3] = sample concentration 4% in 70% ethanol, lower ΔL = more pigmentation
[4] = sample concentration 4% in 70% ethanol

SMILES | Melanin production ratio (% of control) [1] | Pigmentation degree ΔL, After 40 days (UV-induced pigmentation; [2]) | Pigmentation degree ΔL, After 20 days (UV-induced pigmentation; [2]) | Pigmentation degree ΔL, After 20 days (UV-induced pigmentation; [3]) | Pigmentation degree ΔL, After 40 days (UV-induced pigmentation; [4])
O=c1cc(CO)occ1O [Kojic acid, reference compound] | 96 % of control |  |  |  | 
COc1ccc(-c2oc3c(OC)c(OC)c(OC)c(OC)c3c(=O)c2OC)cc1OC [formula (II), 3,5,6,7,8,3′,4′-heptamethoxyflavone] | 65 % of control |  |  |  | 
COc1ccc(-c2cc(=O)c3c(OC)c(OC)c(OC)c(OC)c3o2)cc1OC [formula (III), 5,6,7,8,3′,4′-hexamethoxyflavone] | 35 % of control | −3.2 | −5.5 | −5.1 | −1.9
COc1ccc(-c2cc(=O)c3c(OC)c(OC)c(OC)c(OC)c3o2)cc1 [formula (IV), 5,6,7,8,4′-pentamethoxyflavone] | 55 % of control | −3.5 | −6.1 | −5.6 | −3.3
OC[C@H]1O[C@@H](Oc2ccc(O)cc2)[C@H](O)[C@@H](O)[C@@H]1O [Arbutin, reference compound] | 97 % of control |  |  |  | 
COc1ccc(-c2cc(=O)c3c(OC)cc(OC)c(OC)c3o2)cc1OC [formula (V), 5,7,8,3′,4′-pentamethoxyflavone] | 60 % of control |  |  |  | 
